Converted amounts (≈) assume the structure as drawn.
Key:
[1] = Unbound clearance in dog blood at 1 mg/kg, iv; format: ADME, organism-based, Canis lupus familiaris; settings: in vivo
[2] = Unbound clearance in cynomolgus monkey blood at 1 mg/kg, iv; format: ADME, organism-based, Macaca fascicularis; settings: in vivo
[3] = In vivo inhibition of TYK2 in IL-12/IL-18 induced C57/B6 mouse model assessed as reduction in serum IFN-gamma production at 100 mg/kg,po pretreated for 30 mins prior to IL-12/IL-18 challenge and measured after 4 hrs by MSD assay; format: functional; settings: C57/B6, 4.5 h, time 270 min
[4] = Unbound clearance in rat blood at 1 mg/kg, iv or 1 mg/kg,po; format: ADME, organism-based; settings: in vivo
[5] = Half life in dog at 1 mg/kg, iv; format: ADME, organism-based, Canis lupus familiaris; settings: in vivo
[6] = molecular target: Non-receptor tyrosine-protein kinase TYK2 (Mus musculus, UniProt Q9R117); test: Inhibition of TYK2 in C57/B6 mouse whole blood assessed as decrease in STAT4 phosphorylation preincubated for 30 mins followed by mouse IL-12p70 stimulation and measured after 20 mins by flow cytometry; format: tissue-based
Sequence of Non-receptor tyrosine-protein kinase TYK2 (Q9R117 whole entry): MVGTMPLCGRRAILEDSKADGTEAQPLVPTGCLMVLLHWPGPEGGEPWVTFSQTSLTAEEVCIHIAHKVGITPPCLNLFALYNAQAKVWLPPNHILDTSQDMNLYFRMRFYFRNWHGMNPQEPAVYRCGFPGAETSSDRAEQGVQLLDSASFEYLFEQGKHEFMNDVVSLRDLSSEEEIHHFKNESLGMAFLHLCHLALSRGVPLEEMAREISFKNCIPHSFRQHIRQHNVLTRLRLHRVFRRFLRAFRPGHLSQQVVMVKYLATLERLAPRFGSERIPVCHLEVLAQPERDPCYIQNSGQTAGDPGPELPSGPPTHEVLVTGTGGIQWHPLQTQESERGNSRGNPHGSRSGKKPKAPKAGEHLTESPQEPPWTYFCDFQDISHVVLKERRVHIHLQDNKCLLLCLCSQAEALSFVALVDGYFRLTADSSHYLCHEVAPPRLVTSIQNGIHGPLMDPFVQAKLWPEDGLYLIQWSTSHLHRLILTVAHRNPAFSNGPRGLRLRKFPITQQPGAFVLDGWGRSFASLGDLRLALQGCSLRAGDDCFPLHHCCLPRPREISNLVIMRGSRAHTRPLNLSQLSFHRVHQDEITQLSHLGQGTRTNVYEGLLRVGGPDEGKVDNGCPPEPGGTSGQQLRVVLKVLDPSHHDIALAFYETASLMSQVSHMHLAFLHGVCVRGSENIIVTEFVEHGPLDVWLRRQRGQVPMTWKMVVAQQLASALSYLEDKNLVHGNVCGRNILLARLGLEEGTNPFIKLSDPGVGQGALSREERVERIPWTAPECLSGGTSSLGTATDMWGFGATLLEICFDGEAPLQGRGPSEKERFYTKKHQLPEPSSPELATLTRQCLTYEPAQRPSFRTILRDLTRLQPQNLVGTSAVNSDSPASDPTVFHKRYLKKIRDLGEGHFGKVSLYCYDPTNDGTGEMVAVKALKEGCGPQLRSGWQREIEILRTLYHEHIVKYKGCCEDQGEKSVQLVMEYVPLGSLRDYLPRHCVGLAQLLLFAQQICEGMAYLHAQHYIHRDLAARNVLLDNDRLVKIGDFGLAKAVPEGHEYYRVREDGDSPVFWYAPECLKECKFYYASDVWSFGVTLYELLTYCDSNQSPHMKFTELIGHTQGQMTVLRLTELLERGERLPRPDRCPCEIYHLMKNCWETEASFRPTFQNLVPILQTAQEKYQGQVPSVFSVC

[7] = Oral bioavailability in cynomolgus monkey at 1 mg/kg; format: ADME, organism-based, Macaca fascicularis; settings: in vivo
[8] = Oral bioavailability in rat at 1 mg/kg; format: ADME, organism-based; settings: in vivo
Mus musculus [9] = test: Anti-inflammatory activity in po dosed B10.RII mouse model of mouse IL-23 mini circle induced psoriasiform dermatitis assessed as decrease in ear thickness measured at 101 to 10000 ng/ml of whole blood drug exposure level measured after 30 mins; format: functional, organism-based; settings: 0.5 h
[10] = Metabolic stability in monkey hepatocytes assessed as intrinsic clearance for unbound fraction of drug; format: ADME, cell-based, Macaca mulatta, Hepatocyte; settings: rhesus monkey
Mus musculus [11] = test: Anti-inflammatory activity in B10.RII mouse model of mouse IL-23 mini circle induced psoriasiform dermatitis assessed as decrease in ear thickness at 100 mg/kg,po QD for 5 days by caliper analysis; format: functional; design: scale not given: the % may be the effect or the level left; settings: time 5 day
[12] = AUC (0 to infinity) in dog at 1 mg/kg,po; format: ADME, organism-based, Canis lupus familiaris; design: dose 1 mg/kg, route po; settings: in vivo
[13] = Thermodynamic solubility in PBS at pH 7.4; format: physicochemical; settings: read-out: Therm_solubility
[14] = In vivo inhibition of TYK2 in IL-12/IL-18 induced C57/B6 mouse model assessed as reduction in serum IFN-gamma production at 10 mg/kg,po pretreated for 30 mins prior to IL-12/IL-18 challenge and measured after 4 hrs by MSD assay; format: functional; settings: C57/B6, 4.5 h, time 270 min
[15] = Metabolic stability in human hepatocytes assessed as intrinsic clearance for unbound fraction of drug; format: ADME, cell-based, Hepatocyte
[16] = Volume of distribution at steady state in rat at 1 mg/kg, iv or 1 mg/kg,po; format: ADME, organism-based; settings: in vivo, read-out: Vdss
Mus musculus [17] = test: Anti-inflammatory activity in B10.RII mouse model of mouse IL-23 mini circle induced psoriasiform dermatitis assessed as decrease in ear thickness at 10 mg/kg,po BID for 5 days by caliper analysis; format: functional; design: scale not given: the % may be the effect or the level left; settings: time 5 day

CL free [1]: 7.67 mL/min/kg
CL free [2]: 38.3 mL/min/kg
CL free [4]: 68.3 mL/min/kg
half-life [5]: 4.5 h
EC50 [6]: 1400 nM
bioavailability [7]: 17%
bioavailability [8]: 19%
EC50 (Mus musculus [9]): 0.3 µg/mL (≈ 0.663 µM)
CL free [10]: 45 mL/min/kg
AUC(0-inf) [12]: 2300 ng·h/mL
solubility thermodynamic [13]: 708 µM (≈ 320 µg/mL)
CL free [15]: 31.7 mL/min/kg
Vd [16]: 1.9 L/kg
SMILES: COCc1cc(-c2cn(C3COC3)c3cnc(NC(C)=O)cc23)nc([C@]2(OC)CCOC2)c1
inhibition in vivo at 100 mg/kg [3]: 84%
Activity (Mus musculus [11]): 58%
inhibition in vivo at 10 mg/kg [14]: 24%
Activity (Mus musculus [17]): 38%

Reference: ChEMBL document CHEMBL5370619, “Targeting the Tyrosine Kinase 2 (TYK2) Pseudokinase Domain: Discovery of the Selective TYK2 Inhibitor ABBV-712” (J Med Chem, 2023)
